The NIST ThermoML archive (doi:10.1016/j.jct.2012.05.009)

Assay: mn = molality of the nth substance listed, in mol/kg
Conditions: 101 kPa, Liquid, Vibrating tube method

CC(=O)CCCCn1c(=O)c2c(ncn2C)n(C)c1=O [3,7-dimethyl-1-(5-oxohexyl)-3,7-dihydro-1H-purine-2,6-dione] + O
mass density [kg/m3]
Conditions	m1 = 0.09736	m1 = 0.0976	m1 = 0.09842	m1 = 0.09851	m1 = 0.1012
293.15 K	1003.77	1003.77	1003.81	1003.83	1003.97
298.15 K	1002.51	1002.51	1002.55	1002.57	1002.7
303.15 K	1001.02	1001.02	1001.06	1001.08	1001.21
308.15 K	999.319	999.32	999.356	999.381	999.508
